# Measurements reported in US6114369A, “Benzimidazole compound” (Nissan Chemical Industries, Ltd., priority 1997, dated 2000).
# Where a name gives a salt, the structure may show the parent alone.
# Experiments:
# [1] = system: substance P-induced contraction of the isolated guinea-pig ileum; assay: Inhibitory effect on substance P-induced contraction of the isolated guinea-pig ileum; format: cell-based; details: Cavia porcellus, 5 min, substance P 0.01 μM, 5 min incubation, 30° C.
# Procedure: (§1) Inhibitory effect on substance P and histamine-induced contraction of the isolated guinea-pig ileum. Test compounds were dissolved and diluted in 100% dimethylsulfoxide (DMSO). Substance P (SP, Peninsula Laboratories or Peptide Institute) and histamine dihydrochloride (Wako Pure Chemicals) were dissolved and diluted in distilled water. […] Male Hartley guinea-pigs (300-400 g) were killed by a blow to the head. The ileum was removed and the ileal strips (15-20 mm) were suspended under 0.5 g tension in a 20 ml organ bath containing a modified Tyrode solution maintained at 30° C. and aerated with 95% O2 +5% CO2. Responses were recorded isotonically. Tissues were equilibrated for 15 min, and then the constant responses to histamine (1 μM) were obtained. Then substance P (0.01 μM) or histamine (0.1 μM)-induced contraction was obtained after 5 min incubation with or without the test compounds. Contractile responses to substance P or histamine with the test compound were expressed as a percentage of those without the test compound. IC50 was the concentration of the test compound required to prevent 50% of the contractile response elicited by substance P or histamine. Compound Nos. of the tested compounds correspond to the numbers of Preparation Examples.
# [2] = system: histamine-induced contraction of the isolated guinea-pig ileum; assay: Inhibitory effect on histamine-induced contraction of the isolated guinea-pig ileum; format: cell-based; details: Cavia porcellus, 5 min, histamine 0.1 μM, 5 min incubation, 30° C.
# Procedure: as §1
IC50 [1],IC50 [2],Compound
1400 nM,160 nM,"CN(CCCN(C)C(=O)NCc1cc(C(F)(F)F)cc(C(F)(F)F)c1)Cc1nc2ccccc2n1Cc1ccc(F)cc1 [Compound 3, N-methyl-N-(1-(4-fluorobenzyl)benzimidazol-2-yl)methyl-N'-methyl-N'-(3,5-bis(trifluoromethyl)benzylaminocarbonyl)-1,3-propylenediamine hydrochloride]"
2700 nM,36 nM,CN(CCCN(C)c1nc2ccccc2n1Cc1ccc(F)cc1)C(=O)NCc1ccc(F)cc1 [Compound 9]
950 nM,100 nM,"CN(CCN(C)C(=O)NCc1cc(C(F)(F)F)cc(C(F)(F)F)c1)Cc1nc2ccccc2n1Cc1ccc(F)cc1 [Compound 4, N-methyl-N-(1-(4-fluorobenzyl)benzimidazol-2-yl)methyl-N'-methyl-N'-(3,5-bis(trifluoromethyl)benzylaminocarbonyl)-1,2-ethylenediamine hydrochloride]"
4100 nM,44 nM,COc1ccc(CNC(=O)N(C)CCCN(C)c2nc3ccccc3n2Cc2ccc(F)cc2)cc1 [Compound 12]
3000 nM,280 nM,COc1cc(CNC(=O)N(C)CCCN(C)c2nc3ccccc3n2Cc2ccc(F)cc2)cc(OC)c1 [Compound 8]
2800 nM,28 nM,Cc1ccc(CNC(=O)N(C)CCCN(C)c2nc3ccccc3n2Cc2ccc(F)cc2)cc1 [Compound 13]
2700 nM,25 nM,CN(CCCN(C)c1nc2ccccc2n1Cc1ccc(F)cc1)C(=O)NCc1ccccc1Cl [Compound 6]
2800 nM,41 nM,COc1cccc(CNC(=O)N(C)CCCN(C)c2nc3ccccc3n2Cc2ccc(F)cc2)c1 [Compound 10]
2800 nM,1100 nM,"CN(CCN(C)c1nc2ccccc2n1Cc1ccc(F)cc1)C(=O)NCc1cc(C(F)(F)F)cc(C(F)(F)F)c1 [Compound 2, N-methyl-N-(1-(4-fluorobenzyl)benzimidazol-2-yl)-N'-methyl-N'-(3,5-bis(trifluoromethyl)benzylaminocarbonyl)-1,2-ethylenediamine hydrochloride]"
4000 nM,100 nM,COc1cc(CNC(=O)N(C)CCCN(C)c2nc3ccccc3n2Cc2ccc(F)cc2)cc(OC)c1OC [Compound 7]
590 nM,290 nM,"CN(CCCN(C)c1nc2ccccc2n1Cc1ccc(F)cc1)C(=O)NCc1cc(C(F)(F)F)cc(C(F)(F)F)c1 [Compound 1, N-methyl-N-(1-(4-fluorobenzyl)benzimidazol-2-yl)-N'-methyl-N'-(3,5-bis(trifluoromethyl)benzylaminocarbonyl)-1,3-propylenediamine hydrochloride]"
3000 nM,29 nM,COc1ccccc1CNC(=O)N(C)CCCN(C)c1nc2ccccc2n1Cc1ccc(F)cc1 [Compound 5]
1500 nM,200 nM,CN(CCCN(C)c1nc2ccccc2n1Cc1ccc(F)cc1)C(=O)NCc1cc(Cl)cc(Cl)c1 [Compound 11]
